A word on the pKa: it is the pH at which an ionisable group is half protonated. High values mean a group that holds its proton tightly, low ones a group that gives up its proton readily.

pKa data for 66 compounds are collected here from the pKa sets of Baltruschat and Czodrowski (2020).

The structures appear in SMILES notation.

For the setting “basic group”, `Nc1ncnc2c1nnn2Cc1ccco1` came in with a pKa of 2.6.
Turning to `O=C(O)C#CSc1ccccc1`, the pKa (acidic group) is 2.11.
Turning to `Clc1ccc(-c2ncc(-c3ccccc3)o2)cc1`, the pKa (basic group) worked out at 0.41.
In turn, `O=C(O)c1ccnnc1` showed a pKa (acidic group) of 2.8.
Under “acidic group”, `O=C(O)C[Se]c1ccccc1[N+](=O)[O-]` registered a pKa of 3.45.
Take `Cc1ccc(O)cc1[N+](C)(C)C`: where the note is “acidic group”, the pKa stood at 8.28.
Take `COc1cccc(CN)c1O`: the pKa came out at 11.1 (acidic group) and 8.7 (basic group).
Turning to `CCN1CCCCC1`, the pKa (basic group) stood at 10.7.
For the compound `Cc1cc(O)c(C(C)C)cc1Cl`, the pKa (acidic group) is 9.98.
Under “basic group”, `CCCCN1CCCC1C` (centres undefined) had a pKa of 10.7.
Under “acidic group”, `CCOc1cc(C)nc(-n2nc(C)cc2O)n1` showed a pKa of 7.35.
In turn, `CN(C)CCCN(C)CCCN(C)C` returned a pKa (basic group) of 10.
The compound `N=c1c2ccccc2[nH]c2ccccc12` displayed a pKa (basic group) of 9.99.
Turning to `C=C(C)[C@H]1C[NH2+][C@H](C(=O)O)[C@H]1CC(N)=O`, the pKa (acidic group) was determined as 2.01.
The same measure, in the same setting: with `O=C(O)c1cccs1` the figure was 3.46.
`NCCN1CCOCC1`: where the note is “basic group”, the pKa worked out at 9.45.
With `CC1CCCN(C(C)C=C(c2cccs2)c2cccs2)C1` (centres undefined), where the note is “basic group”, the pKa amounted to 8.28.
`COc1cc(S(C)=O)ccc1-c1nc2ncc(N)cc2[nH]1` (centres undefined) registered a pKa (basic group) of 3.9.
With `c1ccc(-c2nn[nH]n2)cc1`, the pKa (acidic group) was found to be 4.53.
As for `ONc1ccc(Cl)cc1`, the pKa (basic group) turned out to be 2.58.
`O=C(O)c1cc(-c2ccccc2)oc(=O)c1` showed a pKa (acidic group) of 3.3.
In the case of `O=[N+]([O-])c1cccc(NS(=O)(=O)c2ccccc2)c1`, under “acidic group”, the pKa turned out to be 6.91.
On to `CCNc1nc(Cl)nc(NC(C)C)n1`, for which, for the setting “basic group”, the pKa is 1.61.
The compound `CCCCCCCCCc1c(-c2ccccc2)nn(-c2ccccc2)c1O` came in with a pKa (acidic group) of 7.2.
On the same count and under the same terms, to `NNC(=O)C(F)(F)C(F)(F)F` belongs 7.92.
For the compound `O=C(CCNCCC(=O)c1ccccc1)c1ccccc1`, the pKa (basic group) stood at 8.69.
Consider `O=S(=O)([O-])c1c(O)ccc2[nH]ncc12`, for which the pKa (acidic group) was determined as 10.6.
Turning to `O=C(O)C(=O)c1ccccc1`, under “acidic group”, the pKa was determined as 1.22.
On to `Cn1c(CO)nc2ccccc21`, for which the pKa turned out to be 15.8 (acidic group) and 4.36 (basic group).
As to `COc1cc(C)nc(NN)n1`, under “basic group”, the pKa is 6.2.
Compound `Cc1cccc(SCC(=O)O)c1` displayed a pKa (acidic group) of 3.52.
Regarding `O=NCC(=O)c1ccncc1`, the pKa (acidic group) was 7.8.
In the case of `CCCCCNCc1ccc(C)cc1`, the pKa (basic group) worked out at 10.1.
With `CCC(=O)c1nc(C(=O)O)cs1`, the pKa (acidic group) is 3.7.
Take `CC(C)(C)C1=CC(=C2C=CC=CC=C2)C=C(C(C)(C)C)C1=O`: the pKa (basic group) is 4.48.
Where the note is “basic group”, `Nc1ccc2cc([N+](=O)[O-])ccc2c1` registered a pKa of 2.9.
Still for that read-out and setting: with `CCOCCN(CCOCC)c1ccccc1` the figure was 4.1.
In the case of `O=C([O-])[C@@H](NCC[NH2+][C@@H](C(=O)[O-])c1ccccc1O)c1ccccc1O`, the pKa by setting is: (acidic group) 8.76; (basic group) 6.36.
As to `COc1ccc(S)cc1`, the pKa (acidic group) was determined as 6.76.
On the same count and under the same terms, with `CCCCN(C(=O)c1cccc(O)c1)c1ccc(/N=N/c2ccc3c(c2)OCCOCCOCCOCCOCCO3)cc1` the figure was 9.54.
The compound `N#CCCN` gave a pKa (basic group) of 7.75.
Consider `CCCNc1c2ccccc2nc2cccc([N+](=O)[O-])c12`, for which the pKa (basic group) is 7.2.
For `C#CC(CC)(CC)N(CC)C(C)C`, where the note is “basic group”, the pKa came to 8.2.
Still for that read-out and setting: with `Cc1c[n+](C)c([O-])nc1N` the figure was 4.76; with `CN1CCC[C@H]1c1cccnc1`, 7.85; with `CC(C)N(CCc1ccccc1)CCc1ccccc1`, 10.
The compound `CSC(C)C(=O)O` (centres undefined) yielded a pKa (acidic group) of 3.76.
`Nc1ncc(Sc2ccccc2)s1` came in with a pKa (basic group) of 4.16.
Where the note is “basic group”, `C/N=C(\C)SC` yielded a pKa of 7.71.
On the same count and under the same terms, with `CCNNCC` the figure was 7.66; with `Nc1ccccc1Br`, 2.4.
`OC(c1ccncc1)n1cc[nH+]c1` (centres undefined) returned a pKa (acidic group) of 7.24.
Where the note is “acidic group”, `CC(C#N)C(=O)O` (centres undefined) returned a pKa of 2.37.
For the compound `Brc1ccnc2c1ccc1cccnc12`, the pKa (basic group) was determined as 4.03.
Regarding `CC(C(=O)O)c1ccc(-c2ccccc2)c(F)c1` (centres undefined), the pKa (acidic group) turned out to be 4.22.
`O=C(O)c1ccccc1-c1nnn[nH]1`: the pKa (acidic group) stood at 2.9.
Take `COc1ccc2c(c1)cc(C)n2C`: under “basic group”, the pKa was found to be 0.25.
For the setting “basic group”, `COc1cccc(C(=O)N[C@H]2C[C@H]3CC[C@@H](C2)N3Cc2ccccc2)c1OC` returned a pKa of 8.91.
Consider `COC(=O)c1ccc(N)cc1`, for which, under “basic group”, the pKa is 2.44.
As for `Cc1ccc(-c2cnc(-c3ccccc3)o2)cc1`, the pKa (basic group) was determined as 0.91.
Turning to `C#CC(C)(C)N(C)C(C)C`, under “basic group”, the pKa was 8.7.
On to `CCCN(CCC)c1ccc([N+](=O)[O-])cc1`, for which, where the note is “basic group”, the pKa stood at 1.06.
Where the note is “basic group”, `CC1=Nc2ccc(C)cc2N=C(C)C1` displayed a pKa of 4.
With `CNc1nc(C)nc2c1cnn2C`, the pKa (basic group) is 5.
As to `CCC(O)CN(CC)CC(C)O` (centres undefined), the pKa (basic group) came out at 9.2.
In the case of `C1=C(c2ccccc2)C2CCN1CC2`, the pKa (basic group) is 9.1.
